Tests used:
[1] = system: chronic spinal cord injury; settings: individuals with chronic spinal cord injury; cited from earlier work
[2] = system: PTX-induced CIPN; experiment: Repetitive PTX exposure, delayed 4-AP from week 6 (Example 5); assay type: in vivo, mice; settings: four cycles 35 mg/kg PTX
Protocol: To examine this question, 16 week old C7BL/6 female mice were given four cycles of PTX treatment at doses of 35 mg/kg PTX (i.p.). Animals were separated into control (saline, i.p.) or treatment group treated with a dose of 4AP 25% of that used in FIGS. 1 and 2 (i.e., 0.5 mg/kg 4-AP daily, i.p., with treatment initiated 6 weeks after the first PTX treatment and when CIPN-related changes were already apparent).

[3] = system: PTX-induced CIPN; experiment: Four PTX injections, concurrent 4-AP (Example 2); assay type: in vivo, mice; settings: 4-AP 1 mg/kg daily concurrent
Protocol: A subset of animals concurrently received 4-AP (1 mg/kg, daily), which was started at the same as the initial PTX treatment and continued throughout. Functional outcome responses were recorded at three-week intervals throughout the study period, and included von Frey monofilament testing, cold plate thermal sensitivity, CatWalk™ gait analysis, and nerve conduction testing. All animals had functionally demonstrable peripheral neuropathy at six weeks.

[4] = system: Guillain-Barré Syndrome; settings: cited from earlier work
[5] = system: E0771 murine breast cancer cell line; experiment: 4-AP co-applied with paclitaxel to cancer cells in vitro (Example 10); assay type: cell-based
Protocol: (§1) To investigate the effects of 4-AP treatment on cancer cells, 4-AP was co-applied with either paclitaxel or cisplatin in dose response curves extending over a >20-fold range to the widely studied E0771 murine breast cancer cell line and the A549 human lung cancer cell line. Cells were exposed to paclitaxel or cisplatin for 5 days in the presence or absence of 1 mM 4-AP. This concentration of 4-AP is typically used for in vitro studies, and greatly exceeds achievable concentrations in vivo. This higher dose would increase the likelihood of detecting protective activity.

[6] = system: CIS-induced CIPN; assay type: in vivo, mice; settings: 4-AP 1 mg/kg daily for next six weeks
Protocol: In these experiments, 16-week-old C7BL/6 female mice were treated with CIS (2.5 mg/kg, once weekly, i.p.) for eight weeks. Animals were then treated with 4-AP (1 mg/kg daily) for the next six weeks (n=4).

[7] = system: A549 human lung cancer cell line; experiment: 4-AP co-applied with cisplatin to cancer cells in vitro (Example 10); assay type: cell-based; settings: 5 days, 1 mM 4-AP
Protocol: as §1

[8] = system: kidney; experiment: Kidney histology (H&E) after PTX with or without 4-AP (Example 8); assay type: in vivo, mice; settings: PTX day 0
Protocol: To examine effects on the kidney histological studies were conducted on this tissue. Mice received PTX on day 0 of the experiment, and half of those mice also were injected with 4-AP at this time, and every day thereafter, at a dosage of 2 mg/kg. Mice not receiving 4-AP were injected with saline to control for any stress induced by daily injections. Experimental groups also included mice receiving no PTX treatment, and treated only with daily injections of saline. Mice were sacrificed after 1 week. Mice were perfused with 4% paraformaldehyde and kidneys were sectioned and stained with haematoxylin & eosin (H&E).

[9] = system: PTX-induced CIPN; experiment: Repetitive PTX exposure, concurrent low-dose 4-AP weeks 1-12: function and nerve ultrastructure (Examples 3 and 4); assay type: in vivo, mice
Protocol: To determine whether 4-AP also conferred protection against developing CIPN when animals were repetitively exposed to PTX, 16 week old C7BL/6 female mice were given four cycles of PTX treatment at doses of 35 mg/kg PTX (i.p.). Animals were separated into control (saline, i.p.) or treatment group treated with a dose of 4AP 25% of that used in Examples 1 and 2 (i.e., 0.5 mg/kg 4-AP daily, i.p.).
To determine whether 4-AP prevented chemotherapy-induced structural damage even when chemotherapy was applied multiple times, ultrastructural analyses of tissue from mice treated with 35 mg/kg PTX, every 3 weeks, for 4 cycles of treatment was conducted. A low dose of 4-AP that was only 25% of the dose used in Examples 1 and 2 was used, which was applied at 0.5 mg/kg daily instead of 2 mg/kg daily.

[10] = system: chemotherapy-induced peripheral neuropathy (CIPN) caused by PTX
Protocol: More specifically, initial studies were conducted on the specific case of CIPN as induced by exposure to PTX. […] 16 week old C73L/6 female mice were given a single dose of 35 mg/kg PTX (i.p.). Animals were separated into control (saline, i.p., n=4) or treatment group (2 mg/kg 4-AP daily, i.p., n=4). Pre-treatment Catwalk scores were compared to 21 days post-PTX injection.
To align with clinical treatments, mice were treated with a PTX dose of 35 mg/kg (equivalent to approximately 110 mg/m^2 and within the clinical treatment range) for four cycles, each three weeks apart.
The studies also included a 4-AP treatment arm (n=4) with a daily dose of 2 mg/kg 4-AP administered i.p. (as per most previous studies by MN and colleagues).
To evaluate detailed functional changes in gait, the CatWalk™ (Noldus Information Technology, Wageningen, The Netherlands) method was implemented.
Sciatic nerve samples were harvested and resin-embedded, sectioned and imaged using transmission electron microscopy. Images were analyzed to calculate markers of peripheral neuropathy, namely: axon counts, fiber size, myelination (g ratio), and circumferential irregularity (FIG. 2).

[11] = 0.5 mg/kg 4-AP daily started at week 6
[12] = four cycles 35 mg/kg PTX, 0.5 mg/kg 4-AP daily
[13] = four cycles 35 mg/kg PTX, 0.5 mg/kg 4-AP daily i.p.
[14] = 3 weeks after one 35 mg/kg PTX, 2 mg/kg 4-AP daily
[15] = single 35 mg/kg PTX i.p., 2 mg/kg 4-AP daily i.p., vs saline control
[16] = single 35 mg/kg PTX, 2 mg/kg 4-AP daily i.p., pre-treatment vs 21 days post-PTX

**Q.** Which “Phase III outcome” value [1] does the source give for `Nc1ccncc1` [4-AP, 4-aminopyridine] here?
**A.** The value was “failed to reveal significant benefits”.

**Q.** What about the neuropathic pain [1] of the same molecule?
**A.** The neuropathic pain was “decrease neuropathic pain in some individuals”.

**Q.** What about the “mechanical hypersensitivity, von Frey filament testing” value ([2]; 0.5 mg/kg 4-AP daily i.p. started at week 6) of the same molecule?
**A.** Its value is “benefits of 4-AP treatment began to be observed at Week 12”.

**Q.** What about the “gait abnormalities, Catwalk analyses” value [2, 11] of the same molecule?
**A.** Its value is “reversed PTX-induced gait abnormalities”.

**Q.** What about the “jumping behavior, cold-plate stimulus” value [2, 11] of the same molecule?
**A.** Its value is “reversed the symptoms of hypersensitivity to thermal stimuli”.

**Q.** What about the “nerve conduction (latency, amplitude, velocity)” value [2, 11] of the same molecule?
**A.** The value was “reversed PTX-induced abnormalities in nerve conduction”.

**Q.** And the “structural myelin abnormalities indicative of myelin degeneration” value [2, 11]?
**A.** The value was “reversed PTX-induced structural myelin abnormalities”.

**Q.** And the “mechanical allodynia, Von Frey filament testing” value ([3]; four 35 mg/kg PTX i.p. at three-week intervals)?
**A.** Its value is “no changes from baseline in their response”.

**Q.** What about the “amplitude and velocity of nerve impulse conduction” value ([3]; four 35 mg/kg PTX) of the same molecule?
**A.** The value was “prevented the development of these changes”.

**Q.** What about the “loss of cold sensitivity, paw lifts and hind paw licks on cold plate” value ([3]; four 35 mg/kg PTX) of the same molecule?
**A.** The value was “prevented the development of these changes”.

**Q.** And the “sensitivity to cold, jumps off cold plate” value ([3]; four 35 mg/kg PTX)?
**A.** Its value is “no changes from baseline in this parameter”.

**Q.** What about the “pain scores (McGill Pain Inventory questionnaire, visual analog scale)” value ([4]; 4-AP vs placebo, p=0.92) of the same molecule?
**A.** The value was “no difference”.

**Q.** And the nerve conduction velocity ([4]; Guillain-Barré patients)?
**A.** Its nerve conduction velocity is “no clinically significant changes”.

**Q.** And the “protection of cancer cells from PTX” value ([5]; 5 days exposure to PTX in vitro, concurrent 4-AP (1 mM))?
**A.** Its value is “did not protect”.

**Q.** What about the “sensitivity of cancer cells to paclitaxel” value ([5]; 5 days, 1 mM 4-AP) of the same molecule?
**A.** Its value is “appears to even increase sensitivity to low doses of paclitaxel”.

**Q.** What about the body weight ([6]; CIS 2.5 mg/kg once weekly i.p. for eight weeks) of the same molecule?
**A.** The body weight was “regained normal body weight”.

**Q.** And the “hyperalgesia, Von Frey filament analysis” value ([6]; CIS eight weeks)?
**A.** The value was “restoration of normal levels of sensitivity”.

**Q.** What about the nerve impulse amplitude ([6]; CIS eight weeks) of the same molecule?
**A.** The nerve impulse amplitude was “also restored by 4-AP treatment”.

**Q.** What about the nerve impulse velocity ([6]; CIS eight weeks) of the same molecule?
**A.** The nerve impulse velocity was “also restored by 4-AP treatment”.

**Q.** And the “protection of cancer cells from cisplatin” value [7]?
**A.** The value was “does not protect”.

**Q.** And the “proximal and distal tubules, H&E staining” value ([8]; 4-AP 2 mg/kg daily, sacrificed after 1 week)?
**A.** Its value is “normal proximal and distal tubules”.

**Q.** And the “histological kidney damage caused by PTX exposure” value ([8]; 4-AP co-treatment)?
**A.** The value was “prevented multiple aspects of histological kidney damage”.

**Q.** And the “G ratio (axon:myelin area)” value [9, 12]?
**A.** The value was “better myelinated than the control (PTX+Saline) group”.

**Q.** And the axon circularity [9, 12]?
**A.** Its axon circularity is “more regularly structured than the control group”.

**Q.** What about the “frequency of degenerating myelin profiles” value [9, 12] of the same molecule?
**A.** The value was “decreased frequency of degenerating myelin profiles”.

**Q.** What about the “gait abnormalities, Catwalk analyses” value [9, 13] of the same molecule?
**A.** Its value is “ameliorated PTX-induced gait abnormalities”.

**Q.** What about the “jumping behavior, cold-plate stimulus” value [9, 13] of the same molecule?
**A.** Its value is “highly significant at Weeks 6, 9 and 12”.

**Q.** What about the “nerve conduction (latency, amplitude, velocity)” value [9, 13] of the same molecule?
**A.** The value was “ameliorated PTX-induced abnormalities in nerve conduction”.

**Q.** What about the “pawlifts, cold-plate stimulus” value [9, 13] of the same molecule?
**A.** The value was “trended significant at Weeks 6 and 9 and were highly significant at Week 12”.

**Q.** What about the “mechanical hypersensitivity, von Frey filament testing” value ([9]; four cycles 35 mg/kg PTX, 0.5 mg/kg 4-AP daily i.p. weeks 1-12) of the same molecule?
**A.** Its value is “ameliorated PTX-induced mechanical hypersensitivity”.

**Q.** What about the “mitochondrial health by mitochondrial structure” value ([9]; repetitive exposure to chemotherapy, 0.5 mg/kg 4-AP daily) of the same molecule?
**A.** The value was “improves mitochondrial health”.

**Q.** What about the “PTX-induced changes in mitochondrial size and health” value ([10]; 2 mg/kg 4-AP daily i.p.) of the same molecule?
**A.** The value was “decreased PTX-induced changes in mitochondrial size and health”.

**Q.** And the “signs of CIPN” value ([10]; 2 mg/kg 4-AP daily i.p. vs saline, n=4)?
**A.** Its value is “significantly reduced signs of CIPN”.

**Q.** What about the “G ratio (axon:myelin area), sciatic nerve” value [10, 14] of the same molecule?
**A.** The value was “better myelinated than the control group”.

**Q.** And the “axon circularity, sciatic nerve” value [10, 14]?
**A.** The value was “more regularly structured than the control group”.

**Q.** And the nerve conduction latency [10, 15]?
**A.** The nerve conduction latency was “significantly smaller increase in latency”.

**Q.** And the nerve conduction velocity [10, 15]?
**A.** The nerve conduction velocity was “significantly smaller decrease in velocity”.

**Q.** What about the Catwalk stance phase [10, 16] of the same molecule?
**A.** The Catwalk stance phase was “no significant changes”.

**Q.** And the Catwalk swing phase [10, 16]?
**A.** Its Catwalk swing phase is “no significant changes”.
